How the values were obtained:
[1] = tested on: D-542MG; assay: cells; assay type: functional, cell-based; settings: Homo sapiens
Description: SANGER: Inhibition of human D-542MG cell growth in a cell viability assay.

[2] = tested on: DOK; assay: cells; assay type: functional, cell-based; settings: Homo sapiens;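 also: cell viability assay read-out, values reflect inhibition of cell growth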
Description: SANGER: Inhibition of human DOK cell growth in a cell viability assay.

[3] = tested on: Daoy; assay: cells; assay type: functional, cell-based; settings: Homo sapiens;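 also: daoy cell growth inhibition, read out as cell viability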
Description: SANGER: Inhibition of human Daoy cell growth in a cell viability assay.

[4] = tested on: Detroit 562; assay: cells; assay type: functional, cell-based; settings: Homo sapiens;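 also: growth inhibition of human Detroit 562 cells, read out by a cell viability assay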
Description: SANGER: Inhibition of human Detroit562 cell growth in a cell viability assay.

[5] = tested on: EFO-21; assay: cells; assay type: functional, cell-based; settings: Homo sapiens;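 also: growth inhibition of EFO-21 cells measured with a viability assay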
Description: SANGER: Inhibition of human EFO-21 cell growth in a cell viability assay.

[6] = tested on: HCT-15; assay: cells; assay type: functional, cell-based; settings: Homo sapiens;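 also: cell viability readout, IC50 reflecting suppression of HCT-15 cell growth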
Description: SANGER: Inhibition of human HCT-15 cell growth in a cell viability assay.

[7] = tested on: HMV-2 cell line; assay: cells; assay type: functional, cell-based; settings: Homo sapiens;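 also: growth inhibition of HMV-II cells, read out with a cell viability assay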
Description: SANGER: Inhibition of human HMV-II cell growth in a cell viability assay.

[8] = tested on: HN; assay: cells; assay type: functional, cell-based; settings: Homo sapiens
Description: SANGER: Inhibition of human HN cell growth in a cell viability assay.

[9] = tested on: HSC-2; assay: cells; assay type: functional, cell-based; settings: Homo sapiens;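 also: growth inhibition of human HSC-2 cells, read out by a cell viability assay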
Description: SANGER: Inhibition of human HSC-2 cell growth in a cell viability assay.

[10] = tested on: HT-29; assay: cells; assay type: functional, cell-based; settings: Homo sapiens;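 also: growth inhibition of human HT-29 cells, read out by a cell viability assay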
Description: SANGER: Inhibition of human HT-29 cell growth in a cell viability assay.

[11] = tested on: Huh-7; assay: cells; assay type: functional, cell-based; settings: Homo sapiens;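 also: HuH-7 cell growth inhibition, read out with a cell viability assay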
Description: SANGER: Inhibition of human HuH-7 cell growth in a cell viability assay.

[12] = tested on: J82; assay: cells; assay type: functional, cell-based; settings: Homo sapiens;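 also: growth inhibition of J82 cells, read out with a cell viability assay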
Description: SANGER: Inhibition of human J82 cell growth in a cell viability assay.

[13] = tested on: KOSC-2; assay: cells; assay type: functional, cell-based; settings: Homo sapiens;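 also: growth inhibition of KOSC-2 cells, read out by a cell viability assay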
Description: SANGER: Inhibition of human KOSC-2 cell growth in a cell viability assay.

[14] = tested on: KP-4; assay: cells; assay type: functional, cell-based; settings: Homo sapiens;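 also: human KP-4 cells, with growth inhibition read out through a cell viability assay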
Description: SANGER: Inhibition of human KP-4 cell growth in a cell viability assay.

[15] = tested on: LCLC-97TM1; assay: cells; assay type: functional, cell-based; settings: Homo sapiens;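 also: cell viability assay measuring growth inhibition of human LCLC-97TM1 cells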
Description: SANGER: Inhibition of human LCLC-97TM1 cell growth in a cell viability assay.

[16] = tested on: LN-405; assay: cells; assay type: functional, cell-based; settings: Homo sapiens
Description: SANGER: Inhibition of human LN-405 cell growth in a cell viability assay.

[17] = tested on: LoVo; assay: cells; assay type: functional, cell-based; settings: Homo sapiens;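 also: growth inhibition of human LoVo cells, read out with a cell viability assay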
Description: SANGER: Inhibition of human LoVo cell growth in a cell viability assay.

[18] = tested on: MCF7; assay: cells; assay type: functional, cell-based; settings: Homo sapiens;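 also: growth inhibition of human MCF7 cells, read out with a cell viability assay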
Description: SANGER: Inhibition of human MCF7 cell growth in a cell viability assay.

[19] = tested on: MDA-MB-453; assay: cells; assay type: functional, cell-based; settings: Homo sapiens
Description: SANGER: Inhibition of human MDA-MB-453 cell growth in a cell viability assay.

[20] = tested on: ME-180; assay: cells; assay type: functional, cell-based; settings: Homo sapiens;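 also: cell viability assay measuring growth inhibition of ME-180 cells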
Description: SANGER: Inhibition of human ME-180 cell growth in a cell viability assay.

[21] = tested on: NCI-H1573; assay: cells; assay type: functional, cell-based; settings: Homo sapiens;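 also: growth inhibition of NCI-H1573 cells, read out with a cell viability assay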
Description: SANGER: Inhibition of human NCI-H1573 cell growth in a cell viability assay.

[22] = tested on: NCI-H1755; assay: cells; assay type: functional, cell-based; settings: Homo sapiens;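 also: cell viability readout used to measure growth inhibition of NCI-H1755 cells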
Description: SANGER: Inhibition of human NCI-H1755 cell growth in a cell viability assay.

[23] = tested on: NCI-H2087; assay: cells; assay type: functional, cell-based; settings: Homo sapiens;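 also: growth inhibition determined with a cell viability readout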
Description: SANGER: Inhibition of human NCI-H2087 cell growth in a cell viability assay.

[24] = tested on: NCI-H28; assay: cells; assay type: functional, cell-based; settings: Homo sapiens;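 also: growth inhibition of human NCI-H28 cells, read out as cell viability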
Description: SANGER: Inhibition of human NCI-H28 cell growth in a cell viability assay.

[25] = tested on: NCI-H358; assay: cells; assay type: functional, cell-based; settings: Homo sapiens;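 also: growth inhibition of NCI-H358 human cells, read out with a cell viability assay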
Description: SANGER: Inhibition of human NCI-H358 cell growth in a cell viability assay.

[26] = tested on: NCI-H650; assay: cells; assay type: functional, cell-based; settings: Homo sapiens;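 also: growth inhibition of NCI-H650 cells, read out by a viability assay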
Description: SANGER: Inhibition of human NCI-H650 cell growth in a cell viability assay.

[27] = tested on: NCI-H810; assay: cells; assay type: functional, cell-based; settings: Homo sapiens;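 also: IC50 reflects inhibition of cancer cell line growth, read out with a cell viability assay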
Description: SANGER: Inhibition of human NCI-H810 cell growth in a cell viability assay.

[28] = tested on: OAW-28; assay: cells; assay type: functional, cell-based; settings: Homo sapiens;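 also: growth inhibition of OAW-28 cells, read out with a cell viability assay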
Description: SANGER: Inhibition of human OAW-28 cell growth in a cell viability assay.

[29] = tested on: Panc1005; assay: cells; assay type: functional, cell-based; settings: Homo sapiens;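 also: growth inhibition of human PANC-10-05 cells, measured by a cell viability assay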
Description: SANGER: Inhibition of human PANC-10-05 cell growth in a cell viability assay.

[30] = tested on: RCM-1; assay: cells; assay type: functional, cell-based; settings: Homo sapiens;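 also: growth inhibition of the RCM-1 line, determined with a cell viability readout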
Description: SANGER: Inhibition of human RCM-1 cell growth in a cell viability assay.

[31] = tested on: RD; assay: cells; assay type: functional, cell-based; settings: Homo sapiens
Description: SANGER: Inhibition of human RD cell growth in a cell viability assay.

[32] = tested on: RERF-LC-MS; assay: cells; assay type: functional, cell-based; settings: Homo sapiens;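 also: growth inhibition of human RERF-LC-MS cells, read out by a cell viability assay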
Description: SANGER: Inhibition of human RERF-LC-MS cell growth in a cell viability assay.

[33] = tested on: SK-LU-1; assay: cells; assay type: functional, cell-based; settings: Homo sapiens;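 also: cell viability assay measuring growth inhibition of human SK-LU-1 cells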
Description: SANGER: Inhibition of human SK-LU-1 cell growth in a cell viability assay.

[34] = tested on: SN12C; assay: cells; assay type: functional, cell-based; settings: Homo sapiens;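 also: growth inhibition of human SN12C cells, measured by a cell viability assay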
Description: SANGER: Inhibition of human SN12C cell growth in a cell viability assay.

[35] = tested on: SNU-387; assay: cells; assay type: functional, cell-based; settings: Homo sapiens
Description: SANGER: Inhibition of human SNU-387 cell growth in a cell viability assay.

[36] = tested on: SW1417; assay: cells; assay type: functional, cell-based; settings: Homo sapiens;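 also: growth inhibition of human SW1417 cells, read out with a cell viability assay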
Description: SANGER: Inhibition of human SW1417 cell growth in a cell viability assay.

[37] = tested on: SW1463; assay: cells; assay type: functional, cell-based; settings: Homo sapiens;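 also: growth inhibition of SW1463 cells, determined with a cell viability assay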
Description: SANGER: Inhibition of human SW1463 cell growth in a cell viability assay.

[38] = tested on: SW1573; assay: cells; assay type: functional, cell-based; settings: Homo sapiens;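 also: growth inhibition of SW1573 cells, read out with a cell viability assay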
Description: SANGER: Inhibition of human SW1573 cell growth in a cell viability assay.

[39] = tested on: SW1710; assay: cells; assay type: functional, cell-based; settings: Homo sapiens;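 also: growth inhibition of SW1710 cells, determined with a cell viability assay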
Description: SANGER: Inhibition of human SW1710 cell growth in a cell viability assay.

[40] = tested on: 23132-87; assay: cells; assay type: functional, cell-based; settings: Homo sapiens
Description: SANGER: Inhibition of human 23132-87 cell growth in a cell viability assay.

[41] = tested on: ACHN; assay: cells; assay type: functional, cell-based; settings: Homo sapiens;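 also: cell viability read-out used to gauge how strongly growth of human ACHN cells is suppressed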
Description: SANGER: Inhibition of human ACHN cell growth in a cell viability assay.

[42] = tested on: BFTC-909; assay: cells; assay type: functional, cell-based; settings: Homo sapiens
Description: SANGER: Inhibition of human BFTC-909 cell growth in a cell viability assay.

[43] = tested on: CAL-39; assay: cells; assay type: functional, cell-based; settings: Homo sapiens;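 also: cell viability assay measuring growth inhibition of CAL-39 cells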
Description: SANGER: Inhibition of human CAL-39 cell growth in a cell viability assay.

[44] = tested on: CAL-51; assay: cells; assay type: functional, cell-based; settings: Homo sapiens;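 also: human CAL-51 cell line, growth inhibition read out via a cell viability assay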
Description: SANGER: Inhibition of human CAL-51 cell growth in a cell viability assay.

[45] = tested on: CAL-72; assay: cells; assay type: functional, cell-based; settings: Homo sapiens;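 also: cell viability assay measuring inhibition of proliferation in the CAL-72 cell line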
Description: SANGER: Inhibition of human CAL-72 cell growth in a cell viability assay.

[46] = tested on: YAPC; assay: cells; assay type: functional, cell-based; settings: Homo sapiens;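 also: growth inhibition of YAPC cells, measured with a cell viability assay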
Description: SANGER: Inhibition of human YAPC cell growth in a cell viability assay.

[47] = tested on: CAPAN-1; assay: cells; assay type: functional, cell-based; settings: Homo sapiens;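 also: growth suppression of CAPAN-1 cells, read out by a cell viability assay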
Description: SANGER: Inhibition of human CAPAN-1 cell growth in a cell viability assay.

[48] = tested on: COLO-678; assay: cells; assay type: functional, cell-based; settings: Homo sapiens
Description: SANGER: Inhibition of human COLO-678 cell growth in a cell viability assay.

[49] = tested on: COR-L279; assay: SANGER: Inhibition of human COR-L279 cell growth in a cell viability assay.; assay type: functional, cell-based; settings: Homo sapiens, COR-L279
[50] = tested on: Daudi; assay: cells; assay type: functional, cell-based, Homo sapiens; settings: Homo sapiens, Daudi;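 also: growth inhibition of Daudi cells, read out by a viability assay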
Description: SANGER: Inhibition of human Daudi cell growth in a cell viability assay.

[51] = tested on: EB2; assay: cells; assay type: functional, cell-based, Homo sapiens; settings: Homo sapiens, EB2;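 also: growth inhibition of EB2 cells, read out with a cell viability assay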
Description: SANGER: Inhibition of human EB2 cell growth in a cell viability assay.

[52] = tested on: HC-1; assay: cells; assay type: functional, cell-based, Homo sapiens; settings: Homo sapiens, HC-1;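 also: growth inhibition of HC-1 cells measured by a cell viability assay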
Description: SANGER: Inhibition of human HC-1 cell growth in a cell viability assay.

[53] = tested on: KMS-12-PE; assay: cells; assay type: functional, cell-based, Homo sapiens; settings: Homo sapiens, KMS-12-PE;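 also: growth inhibition of human KMS-12-PE cells, measured with a cell viability assay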
Description: SANGER: Inhibition of human KMS-12-PE cell growth in a cell viability assay.

[54] = tested on: L-540; assay: cells; assay type: functional, cell-based, Homo sapiens; settings: Homo sapiens, L-540;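 also: growth inhibition of the human L-540 cell line, read out with a viability assay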
Description: SANGER: Inhibition of human L-540 cell growth in a cell viability assay.

[55] = tested on: LOUCY; assay: cells; assay type: functional, cell-based, Homo sapiens; settings: Homo sapiens, LOUCY;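 also: growth inhibition of human LOUCY cells, read out with a cell viability assay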
Description: SANGER: Inhibition of human LOUCY cell growth in a cell viability assay.

[56] = tested on: LP-1; assay: cells; assay type: functional, cell-based, Homo sapiens; settings: Homo sapiens, LP-1;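 also: growth inhibition of human LP-1 cells, with the read-out taken from a cell viability assay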
Description: SANGER: Inhibition of human LP-1 cell growth in a cell viability assay.

[57] = tested on: NCI-H748; assay: cells; assay type: functional, cell-based, Homo sapiens; settings: Homo sapiens, NCI-H748;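 also: growth inhibition of NCI-H748 cells, measured by a cell viability assay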
Description: SANGER: Inhibition of human NCI-H748 cell growth in a cell viability assay.

[58] = tested on: PF-382; assay: cells; assay type: functional, cell-based, Homo sapiens; settings: Homo sapiens, PF-382
Description: SANGER: Inhibition of human PF-382 cell growth in a cell viability assay.

[59] = tested on: SIMA; assay: cells; assay type: functional, cell-based, Homo sapiens; settings: Homo sapiens, SIMA;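 also: growth inhibition of SIMA cells, measured with a cell viability readout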
Description: SANGER: Inhibition of human SIMA cell growth in a cell viability assay.

[60] = tested on: BC-3; assay: cells; assay type: functional, cell-based, Homo sapiens; settings: Homo sapiens, BC-3;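 also: cell viability assay measuring growth inhibition of human BC-3 cells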
Description: SANGER: Inhibition of human BC-3 cell growth in a cell viability assay.

[61] = tested on: CA46; assay: cells; assay type: functional, cell-based, Homo sapiens; settings: Homo sapiens, CA46;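 also: growth inhibition of human CA46 cells, read out by a cell viability assay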
Description: SANGER: Inhibition of human CA46 cell growth in a cell viability assay.

[62] = tested on: THP-1; assay: cells; assay type: functional, cell-based, Homo sapiens; settings: Homo sapiens, THP-1
Description: SANGER: Inhibition of human THP-1 cell growth in a cell viability assay.

## Cc1ccc(-n2nc(C(C)(C)C)cc2NC(=O)Nc2ccc(OCCN3CCOCC3)c3ccccc23)cc1 [DORAMAPIMOD]
[1]
  IC50: > 10 µM
[2]
  IC50: > 10 µM
[3]
  IC50: > 10 µM
[4]
  IC50: > 10 µM
[5]
  IC50: > 10 µM
[6]
  IC50: > 10 µM
[7]
  IC50: > 10 µM
[8]
  IC50: > 10 µM
[9]
  IC50: > 10 µM
[10]
  IC50: > 10 µM
[11]
  IC50: > 10 µM
[12]
  IC50: > 10 µM
[13]
  IC50: > 10 µM
[14]
  IC50: > 10 µM
[15]
  IC50: > 10 µM
[16]
  IC50: > 10 µM
[17]
  IC50: > 10 µM
[18]
  IC50: > 10 µM
[19]
  IC50: > 10 µM
[20]
  IC50: > 10 µM
[21]
  IC50: > 10 µM
[22]
  IC50: > 10 µM
[23]
  IC50: > 10 µM
[24]
  IC50: > 10 µM
[25]
  IC50: 7.54 µM
[26]
  IC50: > 10 µM
[27]
  IC50: > 10 µM
[28]
  IC50: > 10 µM
[29]
  IC50: > 10 µM
[30]
  IC50: > 10 µM
[31]
  IC50: > 10 µM
[32]
  IC50: > 10 µM
[33]
  IC50: > 10 µM
[34]
  IC50: > 10 µM
[35]
  IC50: > 10 µM
[36]
  IC50: > 10 µM
[37]
  IC50: > 10 µM
[38]
  IC50: > 10 µM
[39]
  IC50: > 10 µM
[40]
  IC50: > 10 µM
[41]
  IC50: > 10 µM
[42]
  IC50: > 10 µM
[43]
  IC50: > 10 µM
[44]
  IC50: > 10 µM
[45]
  IC50: > 10 µM
[46]
  IC50: > 10 µM
[47]
  IC50: > 10 µM
[48]
  IC50: > 10 µM

## Cc1ccc(C(=O)Nc2ccc(CN3CCN(C)CC3)c(C(F)(F)F)c2)cc1C#Cc1cnc2cccnn12 [PONATINIB]
[49]
  IC50: > 0.512 µM
[1]
  IC50: > 0.512 µM
[2]
  IC50: > 0.512 µM
[3]
  IC50: > 0.512 µM
[50]
  IC50: 0.0254 µM
[4]
  IC50: > 0.512 µM
[51]
  IC50: 0.0558 µM
[5]
  IC50: 0.304 µM
[52]
  IC50: > 0.512 µM
[6]
  IC50: > 0.512 µM
[7]
  IC50: > 0.512 µM
[8]
  IC50: > 0.512 µM
[9]
  IC50: > 0.512 µM
[10]
  IC50: > 0.512 µM
[11]
  IC50: 0.278 µM
[12]
  IC50: > 0.512 µM
[53]
  IC50: > 0.512 µM
[13]
  IC50: > 0.512 µM
[14]
  IC50: > 0.512 µM
[54]
  IC50: > 0.512 µM
[15]
  IC50: 0.462 µM
[16]
  IC50: > 0.512 µM
[55]
  IC50: > 0.512 µM
[56]
  IC50: > 0.512 µM
[17]
  IC50: > 0.512 µM
[18]
  IC50: > 0.512 µM
[19]
  IC50: > 0.512 µM
[20]
  IC50: > 0.512 µM
[22]
  IC50: > 0.512 µM
[23]
  IC50: 0.204 µM
[24]
  IC50: > 0.512 µM
[25]
  IC50: > 0.512 µM
[26]
  IC50: > 0.512 µM
[57]
  IC50: > 0.512 µM
[27]
  IC50: > 0.512 µM
[28]
  IC50: > 0.512 µM
[29]
  IC50: > 0.512 µM
[58]
  IC50: 0.209 µM
[30]
  IC50: > 0.512 µM
[31]
  IC50: > 0.512 µM
[32]
  IC50: > 0.512 µM
[59]
  IC50: > 0.512 µM
[33]
  IC50: 0.315 µM
[34]
  IC50: > 0.512 µM
[35]
  IC50: > 0.512 µM
[36]
  IC50: > 0.512 µM
[37]
  IC50: > 0.512 µM
[38]
  IC50: > 0.512 µM
[39]
  IC50: 0.365 µM
[40]
  IC50: > 0.512 µM
[41]
  IC50: 0.293 µM
[60]
  IC50: > 0.512 µM
[42]
  IC50: > 0.512 µM
[61]
  IC50: 0.175 µM
[43]
  IC50: 0.465 µM
[44]
  IC50: > 0.512 µM
[45]
  IC50: > 0.512 µM
[62]
  IC50: > 0.512 µM
[46]
  IC50: > 0.512 µM
[47]
  IC50: > 0.512 µM
[48]
  IC50: > 0.512 µM

## O=S(=O)(O)c1ccc2cc(/N=N/c3cc(S(=O)(=O)O)c4cccnc4c3O)ccc2c1
[49]
  IC50: > 16 µM
[1]
  IC50: > 16 µM
[2]
  IC50: > 16 µM
[3]
  IC50: > 16 µM
[50]
  IC50: > 16 µM
[4]
  IC50: > 16 µM
[51]
  IC50: > 16 µM
[5]
  IC50: > 16 µM
[52]
  IC50: > 16 µM
[6]
  IC50: 15.9 µM
[7]
  IC50: > 16 µM
[8]
  IC50: > 16 µM
[9]
  IC50: > 16 µM
[10]
  IC50: > 16 µM
[11]
  IC50: > 16 µM
[12]
  IC50: > 16 µM
[53]
  IC50: > 16 µM
[13]
  IC50: > 16 µM
[14]
  IC50: > 16 µM
[54]
  IC50: > 16 µM
[15]
  IC50: > 16 µM
[16]
  IC50: > 16 µM
[55]
  IC50: > 16 µM
[56]
  IC50: > 16 µM
[17]
  IC50: > 16 µM
[18]
  IC50: > 16 µM
[19]
  IC50: > 16 µM
[20]
  IC50: > 16 µM
[22]
  IC50: > 16 µM
[23]
  IC50: > 16 µM
[24]
  IC50: > 16 µM
[25]
  IC50: > 16 µM
[26]
  IC50: > 16 µM
[57]
  IC50: > 16 µM
[27]
  IC50: > 16 µM
[28]
  IC50: > 16 µM
[29]
  IC50: > 16 µM
[58]
  IC50: > 16 µM
[30]
  IC50: > 16 µM
[31]
  IC50: > 16 µM
[32]
  IC50: > 16 µM
[59]
  IC50: > 16 µM
[33]
  IC50: > 16 µM
[34]
  IC50: > 16 µM
[35]
  IC50: > 16 µM
[36]
  IC50: > 16 µM
[37]
  IC50: > 16 µM
[38]
  IC50: > 16 µM
[39]
  IC50: > 16 µM
[40]
  IC50: > 16 µM
[41]
  IC50: > 16 µM
[60]
  IC50: > 16 µM
[42]
  IC50: > 16 µM
[61]
  IC50: > 16 µM
[43]
  IC50: > 16 µM
[44]
  IC50: 9.36 µM
[45]
  IC50: > 16 µM
[62]
  IC50: > 16 µM
[46]
  IC50: > 16 µM
[47]
  IC50: > 16 µM
[48]
  IC50: > 16 µM
